{
  "source": "paper PMC9543091",
  "about": "“A bacterial chemoreceptor that mediates chemotaxis to two different plant hormones” (Environmental Microbiology, 2022)",
  "key": {"PcpI [1]": {"target": "T1, PcpI (Pseudomonas putida, UniProt A0A4D6XHR0)", "T1 construct": "gene E6B08_28110; LBD (amino acids 38–174)", "T1 sequence (A0A4D6XHR0 38-174)": "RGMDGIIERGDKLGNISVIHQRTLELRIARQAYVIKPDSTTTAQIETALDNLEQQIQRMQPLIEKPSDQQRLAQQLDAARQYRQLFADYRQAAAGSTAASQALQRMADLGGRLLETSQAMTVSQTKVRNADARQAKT", "assay": "isothermal titration calorimetry", "assay_type": "binding"}, "[2]": {"target": "T2, E6B08_RS28125 (solute binding protein)", "T2 construct": "recombinant from pET28b(+), without the predicted signal peptide", "assay": "isothermal titration calorimetry (and DSF)", "parameters": "species or system Pseudomonas putida"}, "PcpI [3]": {"target": "T1, PcpI", "assay": "isothermal titration calorimetry; DSF Tm shift […]°C", "assay_type": "binding", "source_text": "Exothermic heats were observed that decreased as protein saturation progressed"}},
  "data": [
    {"smiles": "Cc1cccc(C(=O)O)c1", "note": "[3-methylbenzoate]", "values": [
      {"measurement": "Kd", "setting": "PcpI [1]; read-out: Kd", "result": "91 ± 8", "unit": "µM"}
    ]},
    {"smiles": "N=C(N)NCCC[C@H](N)C(=O)O", "note": "[L-Arg]", "values": [
      {"measurement": "Kd", "setting": "[2]", "result": "29.5 ± 3", "unit": "µM"}
    ]},
    {"smiles": "N[C@@H](Cc1c[nH]cn1)C(=O)O", "note": "[L-His]", "values": [
      {"measurement": "Kd", "setting": "[2]", "result": "3.3 ± 0.3", "unit": "µM"}
    ]},
    {"smiles": "NCCC[C@H](N)C(=O)O", "note": "[L-ornithine]", "values": [
      {"measurement": "Kd", "setting": "[2]", "result": "0.9 ± 0.1", "unit": "µM"}
    ]},
    {"smiles": "O=C(O)c1ccccc1", "note": "[benzoate]", "values": [
      {"measurement": "Kd", "setting": "PcpI [1]", "result": "171 ± 14", "unit": "µM"}
    ]},
    {"smiles": "O=C(O)c1ccccc1O", "note": "[salicylate]", "values": [
      {"measurement": "Kd", "setting": "PcpI [3]", "result": "826 ± 34", "unit": "µM"}
    ]}
  ]
}
